Test results as given in patent US20070275984A1, “Novel Thieno-Pyridine and Thieno-Pyrimidine Derivatives and Their Use as Positive Allosteric Modulators of Mglur2-Receptors” (JANSSEN PHARMACEUTICA N.V., priority 2004, published 2007).

Tested on: not given
Assay: not given
Details: not given

melting point [°C] | Structure (SMILES)
124.2 | Cc1nc(NCc2ccccc2)c2cc(C)sc2n1 [Compound 5, N-benzyl-2,6-dimethylthieno[2,3-d]pyrimidin-4-amine]
138.5 | COc1nc(NCCc2ccccc2)c2cc(C)sc2n1 [Compound 15, 2-methoxy-6-methyl-N-phenethylthieno[2,3-d]pyrimidin-4-amine]
129 | COc1ccc(CCNc2nc(C)nc3sc(C)cc23)cc1 [Compound 28, N-(4-methoxyphenethyl)-2,6-dimethylthieno[2,3-d]pyrimidin-4-amine]
117 | Cc1nc(NCC(O)c2ccccc2)c2cc(C)sc2n1 (stereo not shown) [Compound 53, 2-(2,6-dimethylthieno[2,3-d]pyrimidin-4-ylamino)-1-phenylethanol]
108 | Cc1nc(NCCCCc2ccccc2)c2cc(C)sc2n1 [Compound 54, 2,6-dimethyl-N-(4-phenylbutyl)thieno[2,3-d]pyrimidin-4-amine]
122 | COc1cccc(CCCNc2nc(C)nc3sc(C)cc23)c1 [Compound 55, N-(3-(3-methoxyphenyl)propyl)-2,6-dimethylthieno[2,3-d]pyrimidin-4-amine]
120 | COc1ccc(CCCNc2nc(C)nc3sc(C)cc23)cc1 [Compound 56, N-(3-(4-methoxyphenyl)propyl)-2,6-dimethylthieno[2,3-d]pyrimidin-4-amine]
90 | COCCCNc1nc(C)nc2sc(C)cc12 [Compound 57, N-(3-methoxypropyl)-2,6-dimethylthieno[2,3-d]pyrimidin-4-amine]
107 | COc1cccc(CNc2nc(C)nc3sc(Cc4ccccc4)cc23)c1 [Compound 60, N-(3-methoxybenzyl)-6-benzyl-2-methylthieno[2,3-d]pyrimidin-4-amine]
81 | CCc1cc2c(NCCc3cccc(OC)c3)ncnc2s1 [Compound 69, N-(3-methoxyphenethyl)-6-ethylthieno[2,3-d]pyrimidin-4-amine]
133 | CCc1cc2c(NCCc3ccc(OC)cc3)ncnc2s1 [Compound 70, N-(4-methoxyphenethyl)-6-ethylthieno[2,3-d]pyrimidin-4-amine]
102 | CCc1cc2c(NCCc3ccc(OC)cc3)nc(C)nc2s1 [Compound 71, N-(4-methoxyphenethyl)-6-ethyl-2-methylthieno[2,3-d]pyrimidin-4-amine]
78 | CCc1cc2c(NCCc3ccc(OC)c(OC)c3)nc(C)nc2s1 [Compound 73, N-(3,4-dimethoxyphenethyl)-6-ethyl-2-methylthieno[2,3-d]pyrimidin-4-amine]
162 | CCCc1cc2c(NCCc3ccccc3)nc(NC)nc2s1 [Compound 81, N2-methyl-N4-phenethyl-6-propylthieno[2,3-d]pyrimidine-2,4-diamine]
79 | CCCc1cc2c(NCCc3ccc(O)cc3)nc(OC)nc2s1 [Compound 83, 4-(2-(2-methoxy-6-propylthieno[2,3-d]pyrimidin-4-ylamino)ethyl)phenol]
135 | CCCc1cc2c(NCCc3ccc(O)cc3)nc(Cl)nc2s1 [Compound 84, 4-(2-(2-chloro-6-propylthieno[2,3-d]pyrimidin-4-ylamino)ethyl)phenol]
92 | CCCc1cc2c(NCCc3ccc(OC)cc3)nc(OC)nc2s1 [Compound 86, N-(4-methoxyphenethyl)-2-methoxy-6-propylthieno[2,3-d]pyrimidin-4-amine]
108.5 | COc1ccc(CCNc2ncnc3sc(C(C)C)cc23)cc1 [Compound 93, N-(4-methoxyphenethyl)-6-isopropylthieno[2,3-d]pyrimidin-4-amine]

Further lines, the molecule ahead of its results:

Structure (SMILES) | melting point [°C]
CN(C)C(=O)c1cc2c(NCCc3ccccc3)ncnc2s1 [Compound 62, N,N-dimethyl-4-(phenethylamino)thieno[2,3-d]pyrimidine-6-carboxamide] | 157
CCc1cc2c(NCc3ccccc3)ncnc2s1 [Compound 64, N-benzyl-6-ethylthieno[2,3-d]pyrimidin-4-amine] | 133
CCc1cc2c(NCc3cccc(OC)c3)ncnc2s1 [Compound 65, N-(3-methoxybenzyl)-6-ethylthieno[2,3-d]pyrimidin-4-amine] | 99
CCc1cc2c(NCc3ccc(F)cc3)ncnc2s1 [Compound 66, N-(4-fluorobenzyl)-6-ethylthieno[2,3-d]pyrimidin-4-amine] | 104
CCc1cc2c(NCCc3ccccc3)ncnc2s1 [Compound 68, 6-ethyl-N-phenethylthieno[2,3-d]pyrimidin-4-amine] | 118
CCc1cc2c(NCCc3ccc(OC)c(OC)c3)ncnc2s1 [Compound 72, N-(3,4-dimethoxyphenethyl)-6-ethylthieno[2,3-d]pyrimidin-4-amine] | 124
CCCc1cc2c(NCc3cccc(OC)c3)ncnc2s1 [Compound 77, N-(3-methoxybenzyl)-6-propylthieno[2,3-d]pyrimidin-4-amine] | 118
CCCc1cc2c(NCCc3ccc(OC)cc3)ncnc2s1 [Compound 85, N-(4-methoxyphenethyl)-6-propylthieno[2,3-d]pyrimidin-4-amine] | 102
CCCc1cc2c(NCCc3ccc(OC)c(OC)c3)ncnc2s1 [Compound 87, N-(3,4-dimethoxyphenethyl)-6-propylthieno[2,3-d]pyrimidin-4-amine] | 128.5
CCCc1cc2c(NCCc3ccc(OCc4nnn[nH]4)cc3)nc(OC)nc2s1 [Compound 88, N-(4-((1H-tetrazol-5-yl)methoxy)phenethyl)-2-methoxy-6-propylthieno[2,3-d]pyrimidin-4-amine] | 181
CCCc1cc2c(NCCNc3ccccc3)ncnc2s1 [Compound 89, N-(2-(phenylamino)ethyl)-6-propylthieno[2,3-d]pyrimidin-4-amine] | 68
COc1cccc(CNc2ncnc3sc(C(C)C)cc23)c1 [Compound 91, N-(3-methoxybenzyl)-6-isopropylthieno[2,3-d]pyrimidin-4-amine] | 65
CC(C)c1cc2c(NCCc3ccccc3)ncnc2s1 [Compound 92, 6-isopropyl-N-phenethylthieno[2,3-d]pyrimidin-4-amine] | 117.5
CCCCc1cc2c(NCCc3ccccc3)ncnc2s1 [Compound 94, 6-butyl-N-phenethylthieno[2,3-d]pyrimidin-4-amine] | 95

Target: T1, native rat mGluR2 (Rattus norvegicus, UniProt P31421)
T1 construct: from tissue; host or cells: cerebral cortex of Sprague-Dawley rats (membrane preparation)
Assay: [35S]GTPγS binding assay using cortical rat brain membranes, potentiation of a selective mGluR2 agonist
Type: biochemical
Details: 10 μM compound together with mGluR2 agonist, compared to agonist alone; Figure B
Text: The [^35S]GTPγS binding is a functional membrane-based assay used to study G-protein coupled receptor (GPCR) function. This method is using a binding assay to assess the initial step in receptor-mediated G protein activation in membranes prepared from cells expressing recombinant GPCR or using membranes from discrete area of the rat brain. In brief, the assay is measuring the activation of G proteins by catalyzing the exchange of guanosine 5′-diphosphate (GDP) by guanosine 5′-triphosphate (GTP) at the α subunit. The GTP-bounded G proteins dissociate into two subunits, Gα-GTP and Gβγ, which in turn regulate intracellular enzymes and ion channels. GTP is rapidly hydrolysed by the Gα-subunit (GTPases) and the G protein is deactivated and ready for new GTP exchange cycle (Harper (1998) Curr Protoc Pharmacol 2.6.1-10, John Wiley & Sons, Inc.). [^35S]GTPγS, a non-hydrolyzed analogue of GTP, is used for this purpose.
This method is widely used to study receptor activation of G protein in membranes prepared from rat brain tissue, including mGluR2 receptors (Schaffhauser et al 2003, Pinkerton et al, 2004). mGluR2 receptors are expressed in the rat brain cortex (Mutel et al (1998) J. Neurochem. 71:2558-64; Schaffhauser et al (1998) Mol. Pharmacol. 53:228-33) and are coupled to Gαi-protein, a preferential coupling for this method.
[^35S]GTPγS binding assay using cortical rat brain membranes preparation was used and adapted from Schaffhauser et al ((2003) Mol. Pharmacol. 4:798-810) for the detection of the positive allosteric modulator properties of the compounds of this invention on native rat mGluR2. In order to eliminate the possible interference with group III Gαi-protein coupled mGluRs (mGluR4, mGluR7, mGluR8; mGluR6 is not expressed in the cortex (Laurie et al (1997) Neuropharmacol. 36:145-52)), the potentiation of the response to a selective mGluR2 agonist, such as DCG-IV (Cartmell et al. (1998) Br. J. Pharmacol. 123(3):497-504) or LY379268 (Monn et al. (1999) J. Med. Chem 42:1027-40), by compounds described in the present invention was performed.
Membrane preparation. Cortices were dissected out from brains of 200-300 g Sprague-Dawley rats (Charles River Laboratories, L'Arbresle, France). Tissues were homogenized in 6 volumes (vol/wt) of 10% sucrose at 4° C. using a glass-teflon homogenizer. The homogenate was centrifuged at 1250 g for 10 min, and the supernatant was centrifuged at 40,000 g for 20 min (4° C.). The pellet was resuspended in 25 ml water using a Polytron disrupter (Kinematica AG, Luzern, Switzerland) and centrifuged for 10 min at 3000 g. (4° C.). The supernatant was centrifuged at 40,000 g for 20 min (4° C.). The supernatant was discarded and the pellet washed twice by resuspension in 10 volumes 5 mM HEPES-KOH, pH 7.4. The homogenate was frozen and thawed twice and centrifuged at 40,000 g for 20 min. The final pellet was resuspended in 5 mM HEPES-KOH, pH 7.4 and stored at −80° C. before its use. Protein concentration was determined by the Bradford method (Bio-Rad protein assay, Reinach, Switzerland) with bovine serum albumin as standard.
[^35S]GTPγS binding assay. Measurement of mGluR2 positive allosteric modulators properties in rat cortical membranes was performed as follows: rat cortical membrane (1.5 μg) were incubated in 96-well microplates for 15 min at 30° C. in assay buffer (50 mM HEPES pH 7.4, 100 mM NaCl, 5 mM MgCl2, 10 μM GDP, 10 μg/ml saponin, EGTA 0.2 mM) with increasing concentrations of positive allosteric modulator (from 1 nM to 10 μM) and a minimal concentration of DCG-IV or LY379268, a selective mGluR2 agonist, that has been determined in previous experiments and that corresponds to the EC20, a concentration that gives 20% of the maximal response of the agonist, and is in accordance to published data (Pin et al. (1999) Eur. J. Pharmacol. 375:277-294). […]

T1 sequence (P31421 19-872): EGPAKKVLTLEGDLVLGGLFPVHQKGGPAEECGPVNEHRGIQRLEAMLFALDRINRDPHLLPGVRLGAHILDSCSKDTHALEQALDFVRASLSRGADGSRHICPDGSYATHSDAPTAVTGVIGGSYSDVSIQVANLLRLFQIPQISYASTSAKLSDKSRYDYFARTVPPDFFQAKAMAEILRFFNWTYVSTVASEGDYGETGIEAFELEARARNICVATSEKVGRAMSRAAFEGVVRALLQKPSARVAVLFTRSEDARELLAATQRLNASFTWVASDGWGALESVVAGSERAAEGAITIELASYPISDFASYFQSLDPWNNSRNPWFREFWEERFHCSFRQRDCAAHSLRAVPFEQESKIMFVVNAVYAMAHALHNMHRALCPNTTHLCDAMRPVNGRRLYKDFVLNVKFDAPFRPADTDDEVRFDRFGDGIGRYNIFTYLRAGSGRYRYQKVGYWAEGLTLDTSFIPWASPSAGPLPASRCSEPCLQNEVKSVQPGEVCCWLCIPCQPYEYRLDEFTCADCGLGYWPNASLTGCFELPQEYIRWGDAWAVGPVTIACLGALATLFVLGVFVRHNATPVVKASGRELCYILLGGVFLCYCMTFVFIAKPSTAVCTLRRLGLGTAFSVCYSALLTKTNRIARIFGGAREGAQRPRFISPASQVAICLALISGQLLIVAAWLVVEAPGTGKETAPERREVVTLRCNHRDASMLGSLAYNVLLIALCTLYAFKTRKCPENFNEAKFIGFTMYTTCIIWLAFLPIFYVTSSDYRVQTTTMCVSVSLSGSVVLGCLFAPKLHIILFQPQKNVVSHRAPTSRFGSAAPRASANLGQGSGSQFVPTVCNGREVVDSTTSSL

Structure (SMILES) | increase of the [GTPi^5S] binding induced by 50 nM of DCG-IV
COc1ccc(CCNc2nc(C)nc3sc(C)cc23)cc1 [Compound 28, N-(4-methoxyphenethyl)-2,6-dimethylthieno[2,3-d]pyrimidin-4-amine] | significantly potentiated

Same assay, conditions: 10 μM compound; compared to buffer value (0% of maximal response); Figure B

Structure (SMILES) | agonistic activity when tested in the absence of 50 nM DCG-IV
COc1ccc(CCNc2nc(C)nc3sc(C)cc23)cc1 [Compound 28, N-(4-methoxyphenethyl)-2,6-dimethylthieno[2,3-d]pyrimidin-4-amine] | no statistically significant agonistic activity

Same assay, conditions: rat cortical membranes; selective mGluR2 agonist such as LY379268; in the presence of 3 or 10 μM of positive allosteric modulator

Structure (SMILES) | Activity: left-ward shift of agonist mGluR2 concentration-response curve
Cc1nc(NCc2ccccc2)c2cc(C)sc2n1 [Compound 5, N-benzyl-2,6-dimethylthieno[2,3-d]pyrimidin-4-amine] | + (left-ward shift of agonist mGluR2 concentration-response curve [<2-fold])
COc1nc(NCCc2ccccc2)c2cc(C)sc2n1 [Compound 15, 2-methoxy-6-methyl-N-phenethylthieno[2,3-d]pyrimidin-4-amine] | +++ (left-ward shift of agonist mGluR2 concentration-response curve [>3.5-fold])
COc1ccc(CCNc2nc(C)nc3sc(Cc4ccccc4)cc23)cc1 [Compound 61, N-(4-methoxyphenethyl)-6-benzyl-2-methylthieno[2,3-d]pyrimidin-4-amine] | ++ (left-ward shift of agonist mGluR2 concentration-response curve [2- to 3.5-fold])
